From patent publication US20110160216A1, “Thymidylate Synthase Haplotype is Associated with Tumor Recurrence in Stage II and Stage III Colon Cancer Patients” (UNIVERSITY OF SOUTHEM CALIFORNIA, priority 2008, published 2011)
Marks after values point to notes of the source that are not given here.

System: locally advanced (Stage II/III) colon cancer
Test: Retrospective study of time to tumor recurrence (TTR) after 5-FU-based adjuvant chemotherapy, by regimen and by TS/MTHFR genotype
Assay type: in vivo, human
Protocol: One hundred and ninety-seven (n=197) with locally advanced colon cancer who were treated with 5-FU-based adjuvant chemotherapy [bolus 5-FU: n=30, (15%); infusimal 5-FU: […], (85%)] either at the University of Southern California/Norris Comprehensive Cancer Center (USC/NCCC) or at the Los Angeles County/University of Southern California Medical Center (LAC/USCMC), between 1987 and 2007, were eligible for the present study. This study was conducted at the USC/NCCC and approved by the Institutional Review Board of the University of Southern California for Medical Sciences. Patient data were collected retrospectively through chart review. Informed consent was signed by all patients involved in the study.
Whole blood was collected and genomic DNA was extracted using the QIAamp kit (Qiagen, CA, USA). Samples were tested using polymerase chain reaction restriction fragment length polymorphism (PCR-RFLP) technique. Briefly, forward and reverse primers were used for PCR amplification (see Table 7), PCR products were digested by restriction enzymes (New England Biolab, Massachusetts, USA) and alleles were separated using a 4% NuSieve ethidium bromide stained agarose gel. TS and MTHFR polymorphisms were tested by PCR, followed by allele-specific restriction enzyme digestion method, as previously described (Mandola, M. V. et al. (2003) Cancer Res 63:2898-904; Mandola, M. V. et al. (2004) Pharmacogenetics 14:319-27; Markan, S. et al. (2007) Mol Cell Biochem 302:125-31; Stern, L. L. et al. (2000) Cancer Epidemiol Biomarkers Prev 9:849-53).
The primary endpoint in this study was time to tumor recurrence (TTR) in Stage II/III colon cancer patients, which was defined as the time from the date of diagnosis of Stage II/III colon cancer to the date of first recurrence, […], or until last contact if the patient was free of any tumor recurrence at the time of last contact. If a patient had not recurred, then TTR was censored at the time of death or at the last follow-up. The associations of time to tumor recurrence with patient's clinico-pathologic characteristics (age, sex, race, Stage, tumor grade, T-stage, N-stage and type of adjuvant chemotherapy) were assessed using univariate survival analyses (log-rank test).
Polymorphisms of TS and MTHFR were coded as categorical variables according to their genotypes. The associations between TS and MTHFR polymorphisms and time to recurrence were examined using Kaplan-Meier curves and log-rank test. The distributions of polymorphisms across demographic characteristics were examined using Fisher's exact test. In the univariate survival analysis, the Pike estimate of relative risk (RR) and its associated 95% confidence interval (95% CI) was based on the log-rank test.

[1] = patients receiving 5-FU only, MTHFR A + 1298C A/A
[2] = patients receiving 5-FU only, MTHFR A + 1298C A/C
[3] = patients receiving 5-FU only, MTHFR A + 1298C C/C
[4] = patients receiving 5-FU only, MTHFR C + 677T C/C
[5] = patients receiving 5-FU only, MTHFR C + 677T C/T
[6] = patients receiving 5-FU only, MTHFR C + 677T T/T
[7] = patients receiving 5-FU only, TS-3′UTR +6b/−6bp
[8] = patients receiving 5-FU only, TS-3′UTR +6bp/+6bP
[9] = patients receiving 5-FU only, TS-3′UTR −6bp/−6bp
[10] = patients receiving 5-FU only, TS-5′UTR 2R/2R
[11] = patients receiving 5-FU only, TS-5′UTR 2R/3R
[12] = patients receiving 5-FU only, TS-5′UTR 3R/36
[13] = patients receiving 5-FU only, TS-5′UTR/GC 2R/2R
[14] = patients receiving 5-FU only, TS-5′UTR/GC 2R/3(G)
[15] = patients receiving 5-FU only, TS-5′UTR/GC 2R/3R(C)
[16] = patients receiving 5-FU only, TS-5′UTR/GC 3R(C)/3R(C)
[17] = patients receiving 5-FU only, TS-5′UTR/GC 3R(G)/3R(C)
[18] = patients receiving 5-FU only, TS-5′UTR/GC 3R(G)/3R(G)

SMILES: O=c1[nH]cc(F)c(=O)[nH]1 [5-FU, 5-Fluorouracil]
- Median time to recurrence (TTR) years (95% CI) (all patients grouped by adjuvant therapy): 6.6 years
- Probablility ± SE of 3-year recurrence (all patients grouped by adjuvant therapy, Greenwood SE): 0.35 ± 0.04
- Median time to recurrence (TTR) years (95% CI) [1]: > 16.8^b years
- Probability ± SE of 3-year recurrence [1]: 0.31 ± 0.06
- Median time to recurrence (TTR) years (95% CI) [2]: 5.9 years
- Probability ± SE of 3-year recurrence [2]: 0.35 ± 0.08
- Relative risk (patients receiving 5-FU only, MTHFR A + 1298C A/C vs A/A (Reference)): 1.33
- Median time to recurrence (TTR) years (95% CI) [3]: 6.6 years
- Probability ± SE of 3-year recurrence [3]: 0.40 ± 0.22
- Relative risk (patients receiving 5-FU only, MTHFR A + 1298C C/C vs A/A (Reference)): 1.50
- Median time to recurrence (TTR) years (95% CI) [4]: 6.6 years
- Probability ± SE of 3-year recurrence [4]: 0.26 ± 0.07
- Median time to recurrence (TTR) years (95% CI) [5]: 5.4 years
- Probability ± SE of 3-year recurrence [5]: 0.41 ± 0.07
- Relative risk (patients receiving 5-FU only, MTHFR C + 677T C/T vs C/C (Reference)): 1.30
- Median time to recurrence (TTR) years (95% CI) [6]: > 7.4^b years
- Probability ± SE of 3-year recurrence [6]: 0.21 ± 0.09
- Relative risk (patients receiving 5-FU only, MTHFR C + 677T T/T vs C/C (Reference)): 0.55
- Median time to recurrence (TTR) years (95% CI) [7]: 5.7 years
- Probability ± SE of 3-year recurrence [7]: 0.34 ± 0.07
- Relative risk (patients receiving 5-FU only, TS-3′UTR +6b/−6bp vs +6bp/+6bP (Reference)): 1.33
- Median time to recurrence (TTR) years (95% CI) [8]: > 16.8^b years
- Probability ± SE of 3-year recurrence [8]: 0.28 ± 0.06
- Median time to recurrence (TTR) years (95% CI) [9]: > 7.7^b years
- Probability ± SE of 3-year recurrence [9]: 0.43 ± 0.12
- Relative risk (patients receiving 5-FU only, TS-3′UTR −6bp/−6bp vs +6bp/+6bP (Reference)): 1.36
- Median time to recurrence (TTR) years (95% CI) [10]: > 16.8^b years
- Probability ± SE of 3-year recurrence [10]: 0.20 ± 0.08
- Median time to recurrence (TTR) years (95% CI) [11]: 4.8 years
- Probability ± SE of 3-year recurrence [11]: 0.42 ± 0.07
- Relative risk (patients receiving 5-FU only, TS-5′UTR 2R/3R vs 2R/2R (Reference)): 1.94
- Median time to recurrence (TTR) years (95% CI) [12]: 6.6 years
- Probability ± SE of 3-year recurrence [12]: 0.29 ± 0.08
- Relative risk (patients receiving 5-FU only, TS-5′UTR 3R/36 vs 2R/2R (Reference)): 1.43
- Median time to recurrence (TTR) years (95% CI) [13]: > 16.8^b years
- Probability ± SE of 3-year recurrence [13]: 0.20 ± 0.08
- Median time to recurrence (TTR) years (95% CI) [14]: 4.8 years
- Probability ± SE of 3-year recurrence [14]: 0.44 ± 0.10
- Relative risk (patients receiving 5-FU only, TS-5′UTR/GC 2R/3(G) vs 2R/2R (Reference)): 1.81
- Median time to recurrence (TTR) years (95% CI) [15]: 5.9 years
- Probability ± SE of 3-year recurrence [15]: 0.38 ± 0.10
- Relative risk (patients receiving 5-FU only, TS-5′UTR/GC 2R/3R(C) vs 2R/2R (Reference)): 1.79
- Median time to recurrence (TTR) years (95% CI) [16]: > 13.3^b years
- Probability ± SE of 3-year recurrence [16]: 0.17 ± 0.11
- Relative risk (patients receiving 5-FU only, TS-5′UTR/GC 3R(C)/3R(C) vs 2R/2R (Reference)): 0.46
- Median time to recurrence (TTR) years (95% CI) [17]: 5.7 years
- Probability ± SE of 3-year recurrence [17]: 0.24 ± 0.12
- Relative risk (patients receiving 5-FU only, TS-5′UTR/GC 3R(G)/3R(C) vs 2R/2R (Reference)): 1.44
- Median time to recurrence (TTR) years (95% CI) [18]: 1.4 years
- Probability ± SE of 3-year recurrence [18]: 0.61 ± 0.17
- Relative risk (patients receiving 5-FU only, TS-5′UTR/GC 3R(G)/3R(G) vs 2R/2R (Reference)): 4.74
